In patent US11053235B2, “Substituted 1,4-dihydropyrimidines for the treatment of HBV infection or HBV-induced diseases” (Janssen Sciences Ireland Unlimited Company, priority 2018, dated 2021) one finds EC50 and CC50 data, which are given here for 18 compounds.

Some results are limits rather than exact numbers.

In one data set the test system is HBV. The data set can be described thus: Anti-viral assay in HepG2.2.15 cells: HBV inhibitory activity (HBV DNA in culture medium by q-PCR). Format: cell-based. The note with it: Hepatitis B virus, HepG2.2.15, 144 h, HepG2.2.15 cells, 6 days treatment, HBV DNA in culture medium by q-PCR, highest concentration 10 uM; read-out: EC50. The text has this: (§1) Example 2: Anti-Viral Assay in HepG2.2.15 Cells
(§2) 1.1. Cell Line • HepG2.2.15 (the HepG2.2.15 cell line can be produced by transfection of the HepG2 cell line as described in Sells, Chen, and Acs 1987 (Proc. Natl. Acad. Sci. USA 84:1005-1009), and the HepG2 cell line is available from ATCC® under number HB-8065™). Reagents • DMEM/F12 (INVITROGEN-11330032) • FBS (GIBCO-10099-141) • Dimethyl sulfoxide(DMSO) (SIGMA-D2650) • Penicillin-streptomycin solution (HYCLONE-SV30010) • NEAA (INVITROGEN-1114050) • L-Glutamine (INVITROGEN-25030081) • Geneticin Selective Antibiotic (G418, 500 mg/ml) (INVITROGEN-10131027) • Trypsinase digestion solution (INVITROGEN-25300062) • CCK8 (BIOLOTE-35004) • QIAamp 96 DNA Blood Kit (12) (QIAGEN-51162) • FastStart Universal Probe Mast Mix (ROCHE-04914058001)
(§3) 2.1. HBV Inhibitory Activity and Cytotoxicity Determination
(§4) Seed the cell HepG2.2.15 cells into 96-well plate in 2% FBS culture medium at the density of 40,000 cells/well and 5,000 cells/well for HBV inhibitory activity and cytotoxicity determination, respectively. After seeding, incubate the cell plates at 37° C., 5% CO2 overnight. The next day, medium containing compounds is added to the cell to treat the cells for 6 days with medium refreshed once in the middle of the treatment. 8 dose points with 3 folds dilution of each compound were adopted and the highest concentration of the compounds is 10 uM and 100 uM for HBV inhibitory activity and cytotoxicity determination, respectively.
The HBV DAN change in the cell culture medium induced by the compounds is measured by q-PCR method. Briefly, the HBV DNA in the culture medium is extracted using QIAamp 96 DNA Blood Kit according to the manual and then quantified by q-PCR using the primers and probe in the table below.
(§5) EC50 and CC50 values are calculated by the GRAPHPAD PRISM software.

The nature of data set [1]: Cytotoxicity determination in HepG2.2.15 cells (CCK-8). The note with it: human, 6 days treatment, CCK-8, highest concentration 100 uM. Format: cell-based.
Source text: as §1, §2, §3, §4
After 6 days of compounds treatment, add 20 μl CCK-8 reagents to each well of cytotoxicity assay plates, incubate the plate at 37° C., 5% CO2 for 2.5 h and measure the absorbance at 450 nm wavelength, at the same time read the absorbance at 630 nm wavelength as reference.
as §5

`CCOC(=O)C1=C(C2CCN(c3nc(C(=O)O)c(C)o3)CC2)NC(c2nccs2)=NC1c1ccc(F)c(F)c1Cl` (single isomer, unassigned) [II-68-B, 2-(4-(6-(2-Chloro-3,4-difluorophenyl)-5-(ethoxycarbonyl)-2-(thiazol-2-yl)-3,6-dihydropyrimidin-4-yl)piperidin-1-yl)5-methyloxazole-4-carboxylic Acid]: the concentration giving a half-maximal response (EC50) in the data set with HBV amounted to 16 nM. The compound further had a CC50 at 6 days in data set [1] of 8320 nM.

As to `COC(=O)C1=C(C2CCN(c3ncc(CC(=O)O)cn3)CC2)NC(c2nccs2)=NC1c1ccc(F)c(F)c1Cl` (single isomer, unassigned) [II-29-B, 2-(2-(4-(6-(2-Chloro-3,4-difluorophenyl)-5-(methoxycarbonyl)-2-(thiazol-2-yl)-3,6-dihydropyrimidin-4-yl)piperidin-1-yl)pyrimidin-5-yl)acetic Acid], the EC50 in the data set on HBV was less than 4.6 nM. Moreover, the cytotoxic concentration (CC50) at 6 days in data set [1] worked out at 9460 nM.

With `CCOC(=O)C1=C(C2CCN(c3nc(C(F)(F)F)c(C(=O)O)s3)CC2)NC(c2nccs2)=NC1c1ccc(F)c(F)c1Cl` (single isomer, unassigned) [II-79-B, 2-(4-(6-(2-Chloro-3,4-difluorophenyl)-5-(ethoxycarbonyl)-2-(thiazol-2-yl)-3,6-dihydropyrimidin-4-yl)piperidin-1-yl)-4-(trifluoromethyl)thiazole-5-carboxylic Acid], the EC50 with HBV turned out to be 13 nM. In data set [1], the midpoint of cytotoxicity, the CC50 at 6 days, lay at 1140 nM.

Turning to `COC(=O)C1=C(C2CCN(c3ncc(C(=O)O)s3)CC2)NC(c2nccs2)=NC1c1ccc(F)c(F)c1Cl` (single isomer, unassigned) [II-30-B, 2-(4-(6-(2-Chloro-3,4-difluorophenyl)-5-(methoxycarbonyl)-2-(thiazol-2-yl)-3,6-dihydropyrimidin-4-yl)piperidin-1-yl)thiazole-5-carboxylic Acid], the EC50 in the data set with HBV came to 7.2 nM. In data set [1], this compound had a CC50 at 6 days of 16000 nM.

Take `COC(=O)C1=C([C@H]2CC[C@H](c3nc(CC(=O)O)co3)CC2)NC(c2nccs2)=NC1c1cccc(F)c1Br` (single isomer, unassigned) [Compound I-19-B]: the 50% effective concentration (EC50) with HBV is 36 nM. The CC50 at 6 days in data set [1] was 15200 nM.

Consider `CCOC(=O)C1=C(C2CCN(c3ncc(C(C)C)c(C(=O)O)n3)CC2)NC(c2nccs2)=NC1c1ccc(F)c(F)c1Cl` (single isomer, unassigned) [II-59-B, 2-(4-(6-(2-Chloro-3,4-difluorophenyl)-5-(ethoxycarbonyl)-2-(thiazol-2-yl)-3,6-dihydropyrimidin-4-yl)piperidin-1-yl)-5-isopropylpyrimidine-4-carboxylic Acid], for which the EC50 with HBV is 13 nM. The CC50 at 6 days in data set [1] turned out to be 8650 nM.

For `CCOC(=O)C1=C([C@H]2CC[C@H](c3cc(C(=O)O)no3)CC2)NC(c2nccs2)=NC1c1ccc(F)c(F)c1Cl` (single isomer, unassigned) [Compound I-42-B, (trans)-5-(4-(6-(2-Chloro-3,4-difluorophenyl)-5-(ethoxycarbonyl)-2-(thiazol-2-yl)-3,6-dihydropyrimidin-4-yl)cyclohexyl)isoxazole-3-carboxylic Acid], in the data set on HBV, the EC50 worked out at 83 nM. In data set [1], the CC50 at 6 days worked out at 10800 nM.

In the case of `COC(=O)C1=C(C2CCN(c3cc(C(=O)O)c(C)cn3)CC2)NC(c2nccs2)=NC1c1ccc(F)cc1Cl` (single isomer, unassigned) [II-89-B, 2-(4-(6-(2-Chloro-4-fluorophenyl)-5-(methoxycarbonyl)-2-(thiazol-2-yl)-3,6-dihydropyrimidin-4-yl)piperidin-1-yl)-5-methylisonicotinic Acid], the EC50 in the data set on HBV turned out to be 9 nM. The compound also had a CC50 at 6 days in data set [1] of 20300 nM.

On to `COC(=O)C1=C(C23CC(c4nc(C(=O)O)co4)(C2)C3)NC(c2nccs2)=NC1c1ccc(F)c(F)c1Cl` (single isomer, unassigned) [Compound I-8-B, 2-(3-(6-(2-Chloro-3,4-difluorophenyl)-5-(methoxycarbonyl)-2-(thiazol-2-yl)-3,6-dihydropyrimidin-4-yl)bicyclo[1.1.1]pentan-1-yl)oxazole-4-carboxylic Acid], for which the EC50 in the data set on HBV stood at 51 nM. In addition, in data set [1], half-maximal cytotoxicity (CC50 at 6 days) was put at 26600 nM.

Consider `COC(=O)C1=C(C2CCN(c3ncc(N)c(C(=O)O)n3)CC2)NC(c2nccs2)=NC1c1ccc(F)c(F)c1Cl` (single isomer, unassigned) [II-92-B, 5-amino-2-(4-(6-(2-chloro-3,4-difluorophenyl)-5-(methoxycarbonyl)-2-(thiazol-2-yl)-3,6-dihydropyrimidin-4-yl)piperidin-1-yl)pyrimidine-4-carboxylic Acid], for which, in the data set with HBV, the EC50 was determined as 7 nM. In data set [1], this compound showed a CC50 at 6 days of 18300 nM.

For the compound `CCOC(=O)C1=C([C@H]2CC[C@H](c3nc(C(=O)O)co3)CC2)NC(c2nccs2)=NC1c1ccc(F)cc1C` (single isomer, unassigned) [Compound I-12-C, (trans)-2-(4-(5-(Ethoxycarbonyl)-6-(4-fluoro-2-methylphenyl)-2-(thiazol-2-yl)-3,6-dihydropyrimidin-4-yl)cyclohexyl)oxazole-4-carboxylic Acid], the EC50 in the data set with HBV came to 36 nM. The compound also registered a CC50 at 6 days in data set [1] of 11100 nM.

For `CCOC(=O)C1=C([C@H]2CC[C@H](c3nc(C(=O)O)cs3)CC2)NC(c2nccs2)=NC1c1ccc(F)c(F)c1Cl` (single isomer, unassigned) [Compound I-41-B, (trans)-2-(4-(6-(2-Chloro-3,4-difluorophenyl)-5-(ethoxycarbonyl)-2-(thiazol-2-yl)-3,6-dihydropyrimidin-4-yl)cyclohexyl)thiazole-4-carboxylic Acid], the EC50 in the data set on HBV was 17 nM. In addition, half-maximal cytotoxicity in data set [1] (CC50 at 6 days) was put at 1020 nM.

With `COC(=O)C1=C(C2CCN(c3nc(C(=O)O)co3)CC2)NC(c2nccs2)=NC1c1ccc(F)cc1Cl` (single isomer, unassigned) [II-18-B, 2-(4-(6-(2-Chloro-4-fluorophenyl)-5-(methoxycarbonyl)-2-(thiazol-2-yl)-3,6-dihydropyrimidin-4-yl)piperidin-1-yl)oxazole-4-carboxylic Acid], the EC50 in the data set with HBV worked out at 89 nM. Further, it took 70000 nM to reach half-maximal cytotoxicity in data set [1] (CC50 at 6 days).

Take `COC(=O)C1=C([C@H]2CC[C@H](c3nc(CC(=O)O)c(C)o3)CC2)NC(c2nccs2)=NC1c1ccc(F)c(F)c1Cl` (single isomer, unassigned) [Compound I-22-B, (trans)-2-(2-(4-(6-(2-Chloro-3,4-difluorophenyl)-5-(methoxycarbonyl)-2-(thiazol-2-yl)-3,6-dihydropyrimidin-4-yl)cyclohexyl)-5-methyloxazol-4-yl)acetic Acid]: the EC50 in the data set on HBV amounted to 15 nM. In addition, it took 7680 nM to reach half-maximal cytotoxicity in data set [1] (CC50 at 6 days).

As for `COC(=O)C1=C(C2CCN(c3ncc(C)c(C(=O)O)n3)CC2)NC(c2nccs2)=NC1c1ccc(F)cc1Br` (single isomer, unassigned) [II-99-B, 2-(4-(6-(2-Bromo-4-fluorophenyl)-5-(methoxycarbonyl)-2-(thiazol-2-yl)-3,6-dihydropyrimidin-4-yl)piperidin-1-yl)-5-methylpyrimidine-4-carboxylic Acid], in the data set with HBV, the EC50 came out at 7.3 nM. Moreover, in data set [1], the 50% cytotoxic concentration (CC50) at 6 days came out at 20700 nM.

On to `CCOC(=O)C1=C(C2CCN(c3ncc(C)c(C(=O)O)n3)CC2)NC(c2nccs2)=NC1c1ccc(F)cc1C` (single isomer, unassigned) [II-4-B, 2-(4-(5-(Ethoxycarbonyl)-6-(4-fluoro-2-methylphenyl)-2-(thiazol-2-yl)-3,6-dihydropyrimidin-4-yl)piperidin-1-yl)-5-methylpyrimidine-4-carboxylic Acid], for which, in the data set with HBV, the EC50 is 19 nM. Moreover, the CC50 at 6 days in data set [1] amounted to 16300 nM.

Regarding `CCOC(=O)C1=C(C2CCN(c3ncc(CC(=O)O)cn3)CC2)NC(c2nccs2)=NC1c1ccc(F)cc1Cl` (single isomer, unassigned) [II-21-B, 2-(2-(4-(6-(2-Chloro-4-fluorophenyl)-5-(ethoxycarbonyl)-2-(thiazol-2-yl)-3,6-dihydropyrimidin-4-yl)piperidin-1-yl)pyrimidin-5-yl)acetic Acid], the EC50 in the data set on HBV stood at 6.2 nM. The compound further registered a CC50 at 6 days in data set [1] of 7110 nM.

As to `CCOC(=O)Cc1coc([C@H]2CC[C@H](C3=C(C(=O)OCC)C(c4ccc(F)c(F)c4Cl)N=C(c4nccs4)N3)CC2)n1` (single isomer, unassigned) [VII-23-Y, (trans)-Ethyl 4-(2-chloro-3,4-difluorophenyl)-(4-(4-(2-ethoxy-2-oxoethyl)oxazol-2-yl)cyclohexyl)-2-(thiazol-2-yl)-1,4-dihydropyrimidine-5-carboxylate], the EC50 with HBV was 23 nM.
